Measurements as given in patent US20030134859A1 (SANKYO COMPANY, LIMITED, priority 2000, published 2003).
Where two headings read alike, the source gives them in different places.

Test system: leptin production
Test: Enhancing activity for leptin production in adipocytes (ELISA)
Format: cell-based, rat
Settings: leptin concentration as % of control group; for activity at 1 µM / activity at 0.001 µM / activity at 0.01 µM / activity at 0.1 µM: Rattus norvegicus, Adipocyte, read-out: Facilitating activity to produce leptin; for activity at 0.001 µM: 1 nm; for activity at 0.01 µM: 10 nm; for activity at 0.1 µM / Facilitating activity to produce leptin: 100 nm
In short: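 Leptin release, quantified by rat leptin ELISA, expressed as percent of 0.1% DMSO control after 24 h at 37 °C. Cells were floating adipocytes isolated by collagenase digestion of epididymal fat from male 6-week Wistar Imamichi rats; compound tested at 1 nM–1 µM final.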

In the case of `N#Cc1cccc(NC(=O)c2cc([N+](=O)[O-])ccc2Cl)c1` [Example 21, N-(3-Cyanophenyl)-(2-chloro-5-nitrophenyl)carboxamide], the activity at 1 µM (24 h) is reported as 130%, the activity at 0.001 µM (24 h) is reported as 116% and the activity at 0.01 µM (24 h) is reported as 120%. It also gave an activity at 0.1 µM (24 h) of 150%.
Molecule `O=C(Nc1cccc([N+](=O)[O-])c1)c1cc([N+](=O)[O-])ccc1Cl` [Example 25, N-(3-Nitrophenyl)-(2-chloro-5-nitrophenyl)carboxamide] has an activity at 0.001 µM (24 hr) of 113%, an activity at 0.01 µM (24 hr) of 118% and an activity at 0.1 µM (24 hr) of 156%.
`O=C(Nc1cc([N+](=O)[O-])ccc1Cl)c1cc([N+](=O)[O-])ccc1Cl` [Example 28, N-(2-Chloro-5-nitrophenyl)-(2-chloro-5-nitrophenyl)carboxamide] gave an activity at 1 µM (24 hr) of 108% and an activity at 0.1 µM (24 hr) of 120%.
`O=C(Nc1cccc(C(=O)N2CCCC2)c1)c1cc([N+](=O)[O-])ccc1Cl` [Example 31] was tested, and the “Facilitating activity to produce leptin” value (24 hr) was 116.9%.
With `O=C(Nc1ccncc1)c1cc([N+](=O)[O-])ccc1Cl` [Example 49, N-(4-Pyridyl)-(2-chloro-5-nitrophenyl)carboxamide] the activity at 1 µM (24 h) was 121%, the activity at 0.01 µM (24 h) was 131% and the activity at 0.1 µM (24 h) was 133%.
`O=C(Nc1ccc(NC(=O)c2cc([N+](=O)[O-])ccc2Cl)nc1)c1cc([N+](=O)[O-])ccc1Cl` [Example 64, 2,5-bis(2-Chloro-5-nitrobenzoylamino)pyridine] gave an activity at 0.001 µM (24 hr) of 110%, an activity at 0.01 µM (24 hr) of 112% and an activity at 0.1 µM (24 hr) of 119%.
Molecule `O=C(Nc1nc2cc(Cl)ccc2o1)c1cc([N+](=O)[O-])ccc1Cl` [Example 75, N-(5-Chlorobenzoxazol-2-yl)-(2-chloro-5-nitrophenyl)carboxamide] has an activity at 0.1 µM (24 h) of 118%.
`O=C(Nc1ncc(Br)cn1)c1cc([N+](=O)[O-])ccc1Cl` [Example 77, N-(5-Bromopyrimidin-2-yl)-(2-chloro-5-nitrophenyl)carboxamide] showed an activity at 1 µM (24 h) of 113%, an activity at 0.001 µM (24 h) of 108% and an activity at 0.01 µM (24 h) of 110%. For the same molecule, the activity at 0.1 µM (24 h) was 130%.
`O=C(Nc1nc(Cl)cc(Cl)n1)c1cc([N+](=O)[O-])ccc1Cl` [Example 83, N-(4,6-Dichloropyrimidin-2-yl)-(2-chloro-5-nitrophenyl)carboxamide] gave an activity at 0.1 µM (24 h) of 126%.
`O=C(Nc1ccc(Cl)nn1)c1cc([N+](=O)[O-])ccc1Cl` [Example 89] was tested, and the “Facilitating activity to produce leptin” value (24 hr) was 123.2%.
In the case of `Cc1c(C)c2c(c(C)c1O)C(=O)CC(C)(COc1ccc(NC(=O)c3cc([N+](=O)[O-])ccc3Cl)cc1)O2` (stereo not shown) [Example 92, N-[4-(6-Hydroxy-2,5,7,8-tetramethyl-4-oxochroman-2-ylmethoxy)phenyl]-(2-chloro-5-nitrophenyl)carboxamide], the activity at 0.1 µM (24 h) is reported as 116%.
In the case of `Cc1nnc(NS(=O)(=O)c2ccc(NC(=O)c3cc([N+](=O)[O-])ccc3Cl)cc2)s1` [Example 101, N-[4-[(5-Methyl-[1,3,4]thiadiazol-2-yl)aminosulfonyl]phenyl]-(2-chloro-5-nitrophenyl)carboxamide], the activity at 1 µM (24 h) is reported as 117%.
`O=C(Nc1ccc(-c2ccc(NC(=O)c3cc([N+](=O)[O-])ccc3Cl)cc2)cc1)c1ccccc1` [Example 120, N-[4-(4-Benzoylaminophenyl)phenyl]-(2-chloro-5-nitrophenyl)carboxamide] gave an activity at 1 µM (24 h) of 121%, an activity at 0.001 µM (24 h) of 108% and an activity at 0.01 µM (24 h) of 110%. It also gave an activity at 0.1 µM (24 h) of 119%.
`Cc1ccc(C(=O)Nc2ccc(NC(=O)c3cc([N+](=O)[O-])ccc3Cl)cc2)cc1` [Example 121, N-[4-(4-Methylbenzoyl)aminophenyl]-(2-chloro-5-nitrophenyl)carboxamide] gave an activity at 0.1 µM (24 h) of 114%.
`O=C(Nc1ccc(-c2ccc(NC(=O)c3cc([N+](=O)[O-])ccc3Cl)cc2)cc1)c1cccnc1` [Example 124, N-[4-[4-(Pyridin-3-ylcarbonylamino)phenyl]phenyl]-(2-chloro-5-nitrophenyl)carboxamide] showed an activity at 1 µM (24 h) of 124%, an activity at 0.001 µM (24 h) of 113% and an activity at 0.01 µM (24 h) of 113%. For the same molecule, the activity at 0.1 µM (24 h) was 146%.
